Patent US10669272B2, “Substituted naphthyridinone compounds useful as T cell activators” (BRISTOL-MYERS SQUIBB COMPANY, priority 2018, dated 2020)
Like-named read-outs stand apart in the source and are kept apart here.

Key:
Human venous whole blood = experiment: Human whole blood IFN-γ assay; type: cell-based; settings: human whole blood, read-out: INFg Whole Blood Normalized Agonist EC50;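 further: blood from healthy donors exposed to compound for 1 h before stimulation with anti-CD3 and anti-CD28 at 1 µg/mL each, IFN-γ quantified in supernatant by AlphaLISA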
Procedure: Human Whole Blood IFN-γ Assay
Human venous whole blood (22.5 μL per well), obtained from healthy donors, was pre-treated with compounds for one hour at 37° C. in a humidified 95% air/5% CO2 incubator. The blood was stimulated with 2.5 μL anti-human CD3 and anti-CD28 mAb at a final concentration of 1 μg/mL each for 24 hours at 37° C. IFN-γ in the supernatants was measured using AlphLISA kit (Cat # AL217).

human DGKζ = biological target: T1, human DGKζ (Homo sapiens, UniProt Q13574); experiment: DGKζ LIPGLO assay (extruded liposome substrate), in vitro DGK inhibition; type: biochemical; settings: read-out: DGKz LIPGLO IC50
T1 construct: TVMV protease cleavage site (C); Hexa-His (C); made in house; host or cells: Sf9 insect cells (baculovirus, Bac-to-Bac)

naïve human CD8 T cells = experiment: Human CD8 T cells IFN-γ assay; type: cell-based; settings: read-out: HuCD8 INFG Normalized EC50;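 further: Naïve human CD8 T cells stimulated with plate-bound anti-CD3 and soluble anti-CD28, IFN-γ in supernatant quantified by AlphaLISA and converted to pg/mL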
human DGKα = biological target: T2, human DGKα (Homo sapiens, UniProt P23743); experiment: DGKα LIPGLO assay (extruded liposome substrate), in vitro DGK inhibition; type: biochemical; settings: read-out: DGKa LIPGLO IC50
T2 construct: TVMV protease cleavage site (C); Hexa-His (C); made in house; host or cells: Sf9 insect cells (baculovirus, Bac-to-Bac)

[1] = normalized to 3 μM reference compound with anti-CD3 plus anti-CD28 as 100% activation
[2] = Homo sapiens, T-cell, 20 h, normalized to 3 μM reference compound with anti-CD3 plus anti-CD28 as 100% activation
[3] = Homo sapiens, 24 h, normalized to 3 μM reference compound with anti-CD3 plus anti-CD28 as 100% activation

T2 sequence (P23743 with tags, fused parts or gaps): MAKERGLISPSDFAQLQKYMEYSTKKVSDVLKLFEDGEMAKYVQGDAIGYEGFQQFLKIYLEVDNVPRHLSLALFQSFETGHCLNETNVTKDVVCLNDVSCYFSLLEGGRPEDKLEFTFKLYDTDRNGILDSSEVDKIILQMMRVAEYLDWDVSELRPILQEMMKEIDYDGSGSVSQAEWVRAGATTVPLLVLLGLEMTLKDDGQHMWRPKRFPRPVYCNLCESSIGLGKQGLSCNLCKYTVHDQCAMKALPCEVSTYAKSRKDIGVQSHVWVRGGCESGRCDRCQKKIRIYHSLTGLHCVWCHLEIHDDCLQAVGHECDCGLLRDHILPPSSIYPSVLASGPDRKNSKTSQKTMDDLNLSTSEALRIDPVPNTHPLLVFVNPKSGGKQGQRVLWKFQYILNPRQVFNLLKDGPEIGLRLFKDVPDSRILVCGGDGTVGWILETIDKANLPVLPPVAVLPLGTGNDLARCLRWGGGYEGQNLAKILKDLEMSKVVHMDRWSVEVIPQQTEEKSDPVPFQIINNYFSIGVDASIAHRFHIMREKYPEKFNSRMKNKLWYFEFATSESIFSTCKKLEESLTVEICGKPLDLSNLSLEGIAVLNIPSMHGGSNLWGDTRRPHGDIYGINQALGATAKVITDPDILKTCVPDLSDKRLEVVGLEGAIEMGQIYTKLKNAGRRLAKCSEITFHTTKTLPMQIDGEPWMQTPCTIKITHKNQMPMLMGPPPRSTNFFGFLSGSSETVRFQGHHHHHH
T1 sequence (Q13574 with tags, fused parts or gaps isoform Q13574-4): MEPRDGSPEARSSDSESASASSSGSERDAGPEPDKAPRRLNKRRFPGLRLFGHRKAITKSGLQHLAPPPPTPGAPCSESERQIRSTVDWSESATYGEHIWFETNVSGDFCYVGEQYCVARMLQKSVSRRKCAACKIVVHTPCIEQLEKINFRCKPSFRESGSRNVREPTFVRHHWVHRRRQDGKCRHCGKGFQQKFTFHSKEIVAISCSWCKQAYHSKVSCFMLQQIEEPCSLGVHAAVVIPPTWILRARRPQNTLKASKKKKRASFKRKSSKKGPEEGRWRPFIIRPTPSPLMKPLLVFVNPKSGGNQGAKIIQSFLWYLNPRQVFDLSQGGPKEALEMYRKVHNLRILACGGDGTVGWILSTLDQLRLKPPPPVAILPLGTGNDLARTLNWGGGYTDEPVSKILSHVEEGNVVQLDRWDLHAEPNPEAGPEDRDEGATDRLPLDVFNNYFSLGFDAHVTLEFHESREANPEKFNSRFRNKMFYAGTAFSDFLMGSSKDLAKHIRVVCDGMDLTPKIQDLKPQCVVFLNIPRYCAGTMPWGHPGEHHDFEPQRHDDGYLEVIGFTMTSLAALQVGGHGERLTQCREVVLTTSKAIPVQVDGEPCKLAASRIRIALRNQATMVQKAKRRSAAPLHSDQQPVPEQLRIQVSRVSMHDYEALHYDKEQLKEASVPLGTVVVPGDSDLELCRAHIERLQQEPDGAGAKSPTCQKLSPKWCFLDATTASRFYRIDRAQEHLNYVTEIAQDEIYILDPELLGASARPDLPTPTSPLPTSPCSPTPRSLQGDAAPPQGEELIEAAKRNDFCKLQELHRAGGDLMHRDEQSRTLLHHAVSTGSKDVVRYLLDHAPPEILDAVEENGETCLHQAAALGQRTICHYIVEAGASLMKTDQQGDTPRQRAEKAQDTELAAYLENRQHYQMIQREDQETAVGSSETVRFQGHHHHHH

| SMILES | EC50 (Human venous whole blood; [1]) [nM] | IC50 (human DGKζ; liposome (LIPGLO) assay) [nM] | EC50 (naïve human CD8 T cells; [2]) [nM] | IC50 (human DGKα; liposome (LIPGLO) assay) [nM] | EC50 (naïve human CD8 T cells; [1]) [nM] | EC50 (Human venous whole blood; [3]) [nM] | EC50 (Human venous whole blood; Homo sapiens, normalized to 3 μM reference compound with anti-CD3 plus anti-CD28 as 100% activation) [nM] | EC50 (Human venous whole blood; Homo sapiens, 24 h, anti-CD3 plus anti-CD28, 24 hours, 3 μM reference compound = 100% activation) [nM] | IC50 (human DGKζ; DGKζ liposome (LIPGLO) assay) [nM] | EC50 (naïve human CD8 T cells; Homo sapiens, T-cell, 20 h, naïve human CD8 T cells, anti-CD3 plus anti-CD28, 3 μM reference compound = 100% activation) [nM] | IC50 (human DGKα; DGKα liposome (LIPGLO) assay) [nM] |
| --- | --- | --- | --- | --- | --- | --- | --- | --- | --- | --- | --- |
| C[C@@H]1CN(c2cc(=O)n(C)c3ccc(C#N)nc23)[C@@H](C)CN1C(c1ccccc1)c1ccc(OC(F)(F)F)cc1 (single isomer, unassigned) [Example 221] | 3000 | 750 | 42 | 1200 | – | – | – | – | – | – | – |
| C[C@@H]1CN(c2cc(=O)n(C)c3ccc(C#N)nc23)[C@@H](C)CN1C(c1ccc(F)cc1)c1cccc2c1OC(F)(F)O2 (some centres unmarked) [Example 669] | 860 | 4800 | – | 140000 | 96 | – | – | – | – | – | – |
| C[C@@H]1CN(c2cc(=O)n(C)c3ccc(C#N)nc23)[C@@H](C)CN1Cc1c(F)cc(F)cc1F [Example 246, 8-[(2S,5R)-2,5-dimethyl-4-[(2,4,6-trifluorophenyl)methyl]piperazin-1-yl]-5-methyl-6-oxo-5,6-dihydro-1,5-naphthyridine-2-carbonitrile] | – | 460 | 27 | 120 | – | 550 | – | – | – | – | – |
| Cc1ccc(C(c2ccc(F)cn2)N2C[C@H](C)N(c3cc(=O)n(C)c4ccc(C#N)nc34)C[C@H]2C)cc1 (single isomer, unassigned) [Example 444] | – | 760 | 49 | 130 | – | 510 | – | – | – | – | – |
| CC[C@@H]1CN(c2cc(=O)n(C)c3ccc(C#N)nc23)[C@@H](C)CN1C(c1ccc(F)cc1)c1ccc(C#N)cc1 (single isomer, unassigned) [Example 1103] | 260 | 270 | – | 250 | 21 | – | – | – | – | – | – |
| C[C@@H]1CN(c2cc(=O)n(C)c3ccc(C#N)nc23)[C@@H](C)CN1C(c1cccc(Cl)c1)c1cccc(Cl)c1 [Example 257, 8-[(2S,5R)-4-[bis(3-chlorophenyl)methyl]-2,5-dimethylpiperazin-1-yl]-5-methyl-6-oxo-5,6-dihydro-1,5-naphthyridine-2-carbonitrile] | – | 830 | 810 | 25000 | – | 6200 | – | – | – | – | – |
| C[C@@H]1CN(c2c(Cl)c(=O)n(C)c3ccc(C#N)nc23)[C@@H](C)CN1C(c1ccccc1)c1ccc(F)cc1 (single isomer, unassigned) [Example 218] | 20000 | > 250000 | – | 9500 | 10000 | – | – | – | – | – | – |
| COc1cc(F)ccc1C(N1C[C@H](C)N(c2cc(=O)n(C)c3ccc(C#N)nc23)C[C@H]1C)C(C)(C)C (single isomer, unassigned) [Example 186] | 20000 | 14000 | – | 3300 | 10000 | – | – | – | – | – | – |
| C[C@@H]1CN(c2cc(=O)n(C)c3ccc(C#N)nc23)[C@@H](C)CN1C(c1ccc(OC(F)(F)F)cc1)c1ccccn1 (single isomer, unassigned) [Example 378] | – | 2500 | 5.3 | 690 | – | 490 | – | – | – | – | – |
| C[C@@H]1CN(c2cc(=O)n(C)c3ccc(C#N)nc23)[C@@H](C)CN1C(c1ccc(Cl)cc1)c1ccc(C#N)cc1 (stereo partly drawn) [Example 298, 8-((2S,5R)-4-((4-chlorophenyl)(4-cyanophenyl)methyl)-2,5-dimethylpiperazin-1-yl)-5-methyl-6-oxo-5,6-dihydro-1,5-naphthyridine-2-carbonitrile] | – | 2400 | 29 | 1500 | – | 570 | – | – | – | – | – |
| C[C@@H]1CN(c2cc(=O)n(C)c3ccc(C#N)nc23)[C@@H](C)CN1C(c1ccc(F)cc1)c1cocn1 (single isomer, unassigned) [Example 710] | 550 | 2600 | 22 | 120 | – | – | – | – | – | – | – |
| C[C@@H]1CN(c2c(Cl)c(=O)n(C)c3ccc(C#N)nc23)[C@@H](C)CN1C(c1ccccc1)c1ccc(F)cc1 (single isomer, unassigned) [Example 217] | – | 140000 | 7800 | 50000 | – | 20000 | – | – | – | – | – |
| CC(c1c(F)cc(F)cc1F)N1C[C@H](C)N(c2cc(=O)n(C)c3ccc(C#N)nc23)C[C@H]1C (single isomer, unassigned) [Example 432] | – | 500 | 15 | 510 | – | 67 | – | – | – | – | – |
| CC(c1ccc(F)cc1)N1C[C@H](C)N(c2cc(=O)n(C)c3ccc(C#N)nc23)C[C@H]1C (single isomer, unassigned) [Example 309] | 880 | 490 | – | 720 | 36 | – | – | – | – | – | – |
| C[C@@H]1CN(c2cc(=O)n(C)c3ccc(C#N)nc23)[C@@H](C)CN1C(c1ccccc1)c1ccc(F)cc1F (stereo partly drawn) [Example 283, 8-[(2S,5R)-4-[(2,4-difluorophenyl)(phenyl)methyl]-2,5-dimethylpiperazin-1-yl]-5-methyl-6-oxo-5,6-dihydro-1,5-naphthyridine-2-carbonitrile] | – | 1100 | 68 | 650 | – | 890 | – | – | – | – | – |
| CCc1cc(F)ccc1C(c1ccc(Cl)cc1)N1C[C@H](C)N(c2cc(=O)n(C)c3ccc(C#N)nc23)C[C@H]1C (single isomer, unassigned) [Example 226] | 1700 | 1400 | – | 67000 | 67 | – | – | – | – | – | – |
| CCOc1ncccc1C(c1ccc(F)cc1)N1C[C@H](C)N(c2cc(=O)n(C)c3ccc(C#N)nc23)C[C@H]1C (single isomer, unassigned) [Example 205] | – | 670 | – | 37000 | 150 | 990 | – | – | – | – | – |
| CC(c1c(F)cccc1F)N1C[C@H](C)N(c2cc(=O)n(C)c3ccc(C#N)nc23)C[C@H]1C (stereo partly drawn) [Example 256, 8-[(2S,5R)-4-[1-(2,6-difluorophenyl)ethyl]-2,5-dimethylpiperazin-1-yl]-5-methyl-6-oxo-5,6-dihydro-1,5-naphthyridine-2-carbonitrile] | – | 570 | 22 | 140 | – | – | 650 | – | – | – | – |
| CC(C)[C@H]1CN(c2cc(=O)n(C)c3ccc(C#N)nc23)CCN1C(c1ccc(F)cc1)c1ccc(F)cc1 [Example 10, (S)-8-(4-(bis(4-fluorophenyl)methyl)-3-isopropylpiperazin-1-yl)-5-methyl-6-oxo-5,6-dihydro-1,5-naphthyridine-2-carbonitrile] | – | 5100 | 150 | 97000 | – | 5000 | – | – | – | – | – |
| C[C@@H]1CN(c2cc(=O)n(C)c3ccc(C#N)nc23)[C@@H](C)CN1C(c1ccccc1)c1ccccc1F (stereo partly drawn) [Example 285, 8-[(2S,5R)-4-[(2-fluorophenyl)(phenyl)methyl]-2,5-dimethylpiperazin-1-yl]-5-methyl-6-oxo-5,6-dihydro-1,5-naphthyridine-2-carbonitrile] | – | 680 | 150 | 270 | – | 1500 | – | – | – | – | – |
| Cc1ccc(C(c2ccc(Cl)cc2)N2CCN(c3c(C#N)c(=O)n(C)c4ccc(C#N)nc34)C[C@H]2C)cc1 (mixture of isomers) [Example 907] | – | – | – | – | – | – | – | 730 | 1500 | 70 | 4400 |
| Cc1cccc(C)c1CN1C[C@H](C)N(c2cc(=O)n(C)c3ccc(C#N)nc23)C[C@H]1C [Example 265, 8-[(2S,5R)-4-[(2,6-dimethylphenyl)methyl]-2,5-dimethylpiperazin-1-yl]-5-methyl-6-oxo-5,6-dihydro-1,5-naphthyridine-2-carbonitrile] | – | 2600 | 1600 | 23000 | – | 3800 | – | – | – | – | – |
| C[C@@H]1CN(c2cc(=O)n(C)c3ccc(C#N)nc23)[C@@H](C)CN1C(c1ccc(Cl)cc1)c1ccc(F)cn1 (single isomer, unassigned) [Example 191] | – | 590 | 31 | 200 | – | 430 | – | – | – | – | – |
